According to patent US4398029A, “Quinoline carboxylic acid derivatives and process for the preparation” (Kyorin Seiyaku Kabushiki Kaisha, priority 1981, dated 1983):

Key:
gram-negative bacteria = details: prior art statement; cited from earlier work
gram-positive bacteria = details: prior art statement; cited from earlier work
Pseudomonas aeruginosa = details: prior art statement; cited from earlier work
S. epidermidis IID 866 = assay: Antibacterial activity (MIC), standard agar dilution streak method; assay type: cell-based; details: Staphylococcus epidermidis, IID866, read-out: Minimum inhibitory concentration
Description: (§1) The antibacterial activities of the compounds of the present invention were assayed by the standard agar dilution streak method against Gram-positive and Gram-negative bacteria [Chemotherapy, 22, 1126 (1974)].

[1] = tested on: Citrobacter freundii IID 976; assay: as above; assay type: cell-based; details: IID976; Citrobacter freundii IID 976; read-out: Minimum inhibitory concentration
Description: as §1

[2] = tested on: Staphylococcus aureus 209 p; assay: as above; assay type: cell-based; details: Staphylococcus aureus 209 p; read-out: Minimum inhibitory concentration
Description: as §1

P. morganii IID 602 = assay: as above; assay type: cell-based; details: Morganella morganii, IID602, P. morganii IID 602; read-out: Minimum inhibitory concentration
Description: as §1

[3] = tested on: Pseudomonas aeruginosa V-1; assay: as above; assay type: cell-based; details: Pseudomonas aeruginosa, V1, Pseudomonas aeruginosa V-1; read-out: Minimum inhibitory concentration
Description: as §1

[4] = tested on: Serratia marcescens IID 618; assay: as above; assay type: cell-based; details: IID618; Serratia marcescens IID 618; read-out: Minimum inhibitory concentration
Description: as §1

Proteus vulgaris 3167 = assay: as above; assay type: cell-based; details: Proteus vulgaris 3167; read-out: Minimum inhibitory concentration
Description: as §1

P. mirabilis IID 994 = assay: as above; assay type: cell-based; details: Proteus mirabilis, IID994; P. mirabilis IID 994; read-out: Minimum inhibitory concentration
Description: as §1

[5] = tested on: Alcaligenes faecalis 0104002; assay: as above; assay type: cell-based; details: Alcaligenes faecalis 0104002; read-out: Minimum inhibitory concentration
Description: as §1

[6] = tested on: Yersinia enterocolitica IID 981; assay: as above; assay type: cell-based; details: IID981; Yersinia enterocolitica IID 981; read-out: Minimum inhibitory concentration
Description: as §1

[7] = tested on: Escherichia coli NIHJ JC-2; assay: as above; assay type: cell-based; details: NIHJJC2; Escherichia coli NIHJ JC-2; read-out: Minimum inhibitory concentration
Description: as §1

[8] = tested on: Klebsiella pneumoniae IFO 3512; assay: as above; assay type: cell-based; details: IFO3512; Klebsiella pneumoniae IFO 3512; read-out: Minimum inhibitory concentration
Description: as §1

[9] = tested on: Enterobacter cloacae IID 977; assay: as above; assay type: cell-based; details: IID977; Enterobacter cloacae IID 977; read-out: Minimum inhibitory concentration
Description: as §1

[10] = tested on: Acinetobacter anitratus IID 876; assay: as above; assay type: cell-based; details: Acinetobacter calcoaceticus, IID876, read-out: Minimum inhibitory concentration
Description: as §1

[11] = tested on: Bacillus subtilis PCI 219; assay: as above; assay type: cell-based; details: PCI219; Bacillus subtilis PCI 219; read-out: Minimum inhibitory concentration
Description: as §1

[12] = tested on: Salmonella enteritidis IID 604; assay: as above; assay type: cell-based; details: Salmonella enterica; Salmonella enteritidis IID 604; read-out: Minimum inhibitory concentration
Description: as §1

S. aureus Terajima = assay: as above; assay type: cell-based, Staphylococcus aureus; details: Staphylococcus aureus; S. aureus Terajima; read-out: Minimum inhibitory concentration
Description: as §1

Shigella sonnei IID 969 = assay: microbe, parasite or virus in culture; assay type: cell-based; details: Shigella sonnei, IID969, Shigella sonnei IID 969; read-out: Minimum inhibitory concentration
Description: as §1

E. coli ATCC 10536 = assay: Antibacterial activity (MIC), standard agar dilution streak method; assay type: cell-based, Escherichia coli; details: Escherichia coli, ATCC10536, read-out: Minimum inhibitory concentration
Description: as §1

P. aeruginosa IFO 12689 = assay: as above; assay type: cell-based, Pseudomonas aeruginosa; details: Pseudomonas aeruginosa, IFO12689, P. aeruginosa IFO 12689; read-out: Minimum inhibitory concentration
Description: as §1

For `CCn1cc(C(=O)O)c(=O)c2ccc(C)nc21` [nalidixic acid], the “effectiveness in the therapy of infections due to gram-negative bacteria” value (“effectiveness in the therapy” below) (gram-negative bacteria) is given as “highly effective”, the “activities against most gram-positive bacteria” value (gram-positive bacteria) is given as “weak activities” and the “activities against Pseudomonas aeruginosa” value (Pseudomonas aeruginosa) is given as “weak activities”.
In the case of `CCn1cc(C(=O)O)c(=O)c2cnc(N3CCNCC3)nc21` [pipemidic acid], the “effectiveness in the therapy” value (gram-negative bacteria) is given as “highly effective”, the “activities against most gram-positive bacteria” value (gram-positive bacteria) is given as “weak activities” and the “activities against Pseudomonas aeruginosa” value (Pseudomonas aeruginosa) is given as “weak activities”.
For `CCn1cc(C(=O)O)c(=O)c2cnc(N3CCCC3)nc21` [piromidic acid], the “effectiveness in the therapy” value (gram-negative bacteria) is listed as “highly effective”, the “activities against most gram-positive bacteria” value (gram-positive bacteria) is listed as “weak activities” and the “activities against Pseudomonas aeruginosa” value (Pseudomonas aeruginosa) is listed as “weak activities”.
`Cl.O=C(O)c1cn(CCF)c2c(F)c(N3CCNCC3)c(F)cc2c1=O` [Example 4, 6,8-Difluoro-1-(2-fluoroethyl)-1,4-dihydro-4-oxo-7-(1-piperazinyl)quinoline-3-carboxylic acid hydrochloride] showed an MIC (S. epidermidis IID 866) of 1.56 µg/mL, an MIC [1] of no more than 0.05 µg/mL and an MIC [2] of 3.13 µg/mL. It also gave an MIC (P. morganii IID 602) of 0.2 µg/mL, an MIC [3] of 6.25 µg/mL and an MIC [4] of 0.39 µg/mL. For the same molecule, the MIC (Proteus vulgaris 3167) was no more than 0.05 µg/mL, the MIC (P. mirabilis IID 994) was no more than 0.05 µg/mL and the MIC [5] was 3.13 µg/mL. It also gave an MIC [6] of 0.05 µg/mL, an MIC [7] of no more than 0.05 µg/mL and an MIC [8] of no more than 0.05 µg/mL. It also gave an MIC [9] of no more than 0.05 µg/mL, an MIC [10] of 3.13 µg/mL and an MIC [11] of 0.39 µg/mL. For the same molecule, the MIC [12] was 0.05 µg/mL, the MIC (S. aureus Terajima) was 3.13 µg/mL and the MIC (Shigella sonnei IID 969) was no more than 0.05 µg/mL. For the same molecule, the MIC (E. coli ATCC 10536) was 0.1 µg/mL and the MIC (P. aeruginosa IFO 12689) was 1.56 µg/mL.
